In assay [1] the test system is Mycobacterium tuberculosis. In words: Antimycobacterial activity against Mycobacterium tuberculosis H37Rv by agar dilution method. In kind it is functional. On the technique in general: In agar dilution, organisms are placed on agar that contains the substance at set levels.
The subject of assay [2] is Vero. Kind of assay: Cytotoxicity against african green monkey Vero cells after 72 hrs by MTT assay. It counts as cell-based. The settings on record: Chlorocebus sabaeus. In general terms: Formazan colour is commonly taken as a measure of viable cells.

MIC90 and IC50 data for 9 compounds are collected here from ChEMBL document CHEMBL2203242, “A regio- and stereoselective 1,3-dipolar cycloaddition for the synthesis of new-fangled dispiropyrrolothiazoles as antimycobacterial agents” (Bioorg Med Chem Lett, 2012).

Values after ≈ are worked out from the molar mass of the structure shown.

Regarding `COc1cc2c(cc1OC)C(=O)[C@]1(C2)[C@@H](c2ccccc2)[C@@H]2CSCN2[C@@]12C(=O)Nc1ccc(OC(F)(F)F)cc12`, the MIC90 (as a rule, the lowest concentration that inhibits either 90% of growth or 90% of the strains tested, depending on the study) in assay [1] is > 6.25 µM. Besides, the IC50 (in general, the concentration at which inhibition is half-maximal) in assay [2] was > 62.5 µg/mL.

As for `COc1cc2c(cc1OC)C(=O)[C@]1(C2)[C@@H](c2ccccc2Cl)[C@@H]2CSCN2[C@@]12C(=O)Nc1ccc(OC(F)(F)F)cc12`, the MIC90 in assay [1] is 11.4 µM (≈ 7.04 µg/mL). Further, the IC50 in assay [2] was > 62.5 µg/mL.

For the compound `COc1cc2c(cc1OC)C(=O)[C@]1(C2)[C@@H](c2ccc(F)cc2)[C@@H]2CSCN2[C@@]12C(=O)N(N1CCOCC1)c1ccccc12`, the MIC90 in assay [1] is 8.12 µM (≈ 4.89 µg/mL). The IC50 in assay [2] was > 62.5 µg/mL.

Take `COc1ccc([C@H]2[C@@H]3CSCN3[C@@]3(C(=O)N(N4CCOCC4)c4ccccc43)[C@@]23Cc2cc(OC)c(OC)cc2C3=O)cc1OC`: in assay [1], the MIC90 came out at 21.2 µM (≈ 13.6 µg/mL). Also, in assay [2], the IC50 was > 62.5 µg/mL.

With `COc1cc2c(cc1OC)C(=O)[C@]1(C2)[C@@H](c2ccccc2)[C@@H]2CSCN2[C@@]12C(=O)N(N1CCOCC1)c1ccccc12`, the MIC90 in assay [1] is > 6.25 µM. Besides, in assay [2], the IC50 was > 62.5 µg/mL.

On to `COc1cc2c(cc1OC)C(=O)[C@]1(C2)[C@@H](c2ccccc2Cl)[C@@H]2CSCN2[C@@]12C(=O)N(N1CCOCC1)c1ccccc12`, for which the MIC90 in assay [1] was 6.29 µM (≈ 3.89 µg/mL). Also, the IC50 in assay [2] is > 62.5 µg/mL.

Regarding `COc1cc2c(cc1OC)C(=O)[C@]1(C2)[C@@H](c2ccc(F)cc2)[C@@H]2CSCN2[C@@]12C(=O)Nc1ccc(OC(F)(F)F)cc12`, in assay [1], the MIC90 is 0.72 µM (≈ 0.432 µg/mL). For the same compound, in assay [2], the IC50 was > 62.5 µg/mL.

With `COc1ccc([C@H]2[C@@H]3CSCN3[C@@]3(C(=O)Nc4ccc(OC(F)(F)F)cc43)[C@@]23Cc2cc(OC)c(OC)cc2C3=O)cc1OC`, in assay [1], the MIC90 turned out to be 12.2 µM (≈ 7.85 µg/mL). For the same compound, the IC50 in assay [2] was > 62.5 µg/mL.

For `NNC(=O)c1ccncc1` [ISONIAZID], the MIC90 in assay [1] is 0.73 µM (≈ 0.1 µg/mL). Also, in assay [2], the IC50 is > 62.5 µg/mL.
